# In patent US20080119456A1, “Substituted Thiazoleacetic Acid as Crth2 Ligands” (priority 2004, published 2008):
# Experiments:
# human CRTH2 receptor = biological target: T1, human CRTH2 receptor (Homo sapiens, UniProt Q9Y5Y4, V204A); test: Receptor binding assay: [3H]PGD2 competition on whole COS-7 cells transfected with CRTH2; conditions: 0.1 nM [3H]PGD2, whole cells, 3 h at 4° C.
# T1 construct: expressed in transfected cells; host or cells: COS-7 cells, transient, pcDNA3.1(+)
# T1 sequence (Q9Y5Y4 1-395 V204A): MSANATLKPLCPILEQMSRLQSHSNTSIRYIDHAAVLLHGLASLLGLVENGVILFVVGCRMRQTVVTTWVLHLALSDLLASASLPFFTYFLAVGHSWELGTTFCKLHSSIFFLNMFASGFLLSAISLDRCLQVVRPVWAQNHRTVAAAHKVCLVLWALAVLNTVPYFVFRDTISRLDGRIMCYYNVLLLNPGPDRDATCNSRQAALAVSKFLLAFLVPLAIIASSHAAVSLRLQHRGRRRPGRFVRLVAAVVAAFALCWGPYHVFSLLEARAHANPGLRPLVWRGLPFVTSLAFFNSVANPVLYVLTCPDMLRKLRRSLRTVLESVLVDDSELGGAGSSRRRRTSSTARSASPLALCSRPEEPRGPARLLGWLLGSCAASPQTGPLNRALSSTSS
# From the text: (§1) Generation/origin of the cDNA Constructs. The coding sequence of the human CRTH2 receptor (genbank accession no NM_004778) was amplified by PCR from a human hippocampus cDNA library and inserted into the pcDNA3.1(+) expression vector (invitrogen) via 5′ HindIII and 3′ EcoRI. To generate a CRTH2-Renilla luciferase (CRTH2-Rluc) fusion protein, the CRTH2 coding sequence without a STOP codon and Rluc were amplified, fused in frame by PCR and subcloned into the pcDNA3.1(+)Zeo expression vector (invitrogen). Human β-arrestin2 (β-arr2) N-terminally tagged with GFP^2 (βarr2-GFP^2) and Renilla luciferase were purchased from BioSignal Packard Inc, (Montreal, Canada). The sequence identity of the construct was verified by restriction endonuclease digests and sequencing in both directions on an ABI Prism (Applied Biosystems, Foster City, Calif.).
# (§2) Cell Culture and Transfection. COS-7 cells were grown in Dulbecco's modified Eagle's medium (DMEM) 1885 supplemented with 10% fetal bovine serum, 100 units/ml penicillin, […] streptomycin, and kept at 37° C. in a 10% CO2 atmosphere. HEK293 cells were maintained in Minimum Essential medium (MEM) supplemented with 10% (v/v) heat inactivated fetal calf serum (HIFCS), 2 mM Glutamax™-I, 1% non essential amino acids (NEAA), 1% sodium pyruvate and 10 μg/ml gentamicin. For binding experiments, COS7 cells were transiently transfected with the CRTH2 receptor using a calcium phosphate-DNA coprecipitation method with the addition of chloroquine (as described by Hoist et al., 2001*). To perform the functional Bioluminescence Resonance Energy Transfer (BRET) assays, a HEK293 cell clone stably expressing βarr2-GFP^2 and CRTH2-Rluc was generated (CRTH2-HEK293 cells).
# Binding assay. 24 h after transfection COS-7 cells were seeded into 96 well plates at a density of 30.000 cells/well. Competition binding experiments on whole cells were then performed about 18-24 h later using 0.1 nM [^3H]PGD2 (NEN, 172 Ci/mmol) in a binding buffer consisting of HBSS (GIBCO) and 10 mM HEPES. Competing ligands were diluted in DMSO which was kept constant at 1% (v/v) of the final incubation volume. Total and nonspecific binding were determined in the absence and presence of 10 μM PGD2. Binding reactions were routinely conducted for 3 h at 4° C. and terminated by 2 washes (100 μl each) with ice cold binding buffer. Radioactivity was determined by liquid scintillation counting in a TOPCOUNTER (Packard) following over night incubation in Microscint 20. Stable HEK293 cells were seeded at a density of 30.000 cells/well 18-24 h prior to the binding assay which was performed essentially as described for COS7 cells above. Determinations were made in duplicates.
# (§3) Curve analysis was performed with the GraphPadPrism software 3.0 (Graphpad Prism Inc., San Diego, USA) and IC50 values were calculated as a measure of the antagonistic potencies.
# human CRTH2-Rluc = biological target: T2, human CRTH2-Rluc (Homo sapiens, UniProt Q9Y5Y4, V204A); test: Functional antagonist BRET assay on HEK293 cells stably expressing CRTH2-Rluc and GFP2-β-arr2; assay type: cell-based; conditions: antagonist incubated 15 minutes before agonist, read-out: Antag. IC50
# T2 construct: expressed in transfected cells
# T2 sequence (Q9Y5Y4 1-395 V204A): T1 sequence (Q9Y5Y4 1-395 V204A)
# From the text: as §1, §2
# BRET assay. Functional BRET assays were performed on HEK293 cells stably expressing human CRTH2-Rluc and GFP^2-β-arr2. Prior to their use in the BRET assay cells were detached and re-suspended in D-PBS with 1000 mg/L L-Glucose at a density of 2×10^6 cells/mL. DeepBlueC™ was diluted to 50 μM in D-PBS with 1000 mg/L L-Glucose (light sensitive). 100 μL of cell suspension was transferred to wells in a 96-well microplate (white OptiPlate) and placed in the Mithras LB 940 instrument (BERTHOLD TECHNOLOGIES, Bad Wildbad, Germany). 12 μL/well agonist was then injected by injector 1 and 10 μL/well DeepBlueC™ was injected simultaneously by injector 2. Five seconds after the injections the light output from the well was measured sequentially at 400 nm and 515 nm, and the BRET signal (mBRET ratio) was calculated by the ratio of the fluorescence emitted by GFP^2-β-arr2 (515 nm) over the light emitted by the receptor-Rluc (400 nm). Antagonists were added before placing the microplates into the Mithras LB 940 and allowed to incubate for 15 minutes prior to the addition of agonist and DeepBlueC™. Compounds were dissolved in DMSO and the final DMSO concentration was kept constant at 1% in the assay.
# as §3
SMILES,IC50 (human CRTH2 receptor) [nM],IC50 (human CRTH2-Rluc) [nM]
"O=C(O)Cc1sc(C(Cc2ccccc2)c2ccc(Cl)cc2)nc1-c1ccc(F)cc1 (centres unmarked) [Compound A7, [2-[1-(4-Chloro-phenyl)-2-phenyl-ethyl]-4-(4-fluoro-phenyl)-thiazol-5-yl]-acetic acid]",< 500,< 500
"O=C(O)Cc1sc(C(Cc2ccccc2)c2ccc(Cl)cc2)nc1-c1ccc(Cl)cc1 (centres unmarked) [Compound A9, {4-(4-Chloro-phenyl)-2-[1-(4-chloro-phenyl)-2-phenyl-ethyl]-thiazol-5-yl}-acetic acid]",< 500,500 to 5000
"O=C(O)Cc1sc(C(c2ccc(F)cc2)c2ccc(F)cc2)nc1-c1ccc(F)cc1 [Compound A14, [2-[Bis-(4-fluoro-phenyl)-methyl]-4-(4-fluoro-phenyl)-thiazol-5-yl]-acetic acid]",< 500,< 500
"O=C(O)Cc1sc(C(NC(=O)c2ccc(C(F)(F)F)cc2)c2ccccc2)nc1-c1ccc(F)cc1 (centres unmarked) [Compound A19, {4-(4-Fluoro-phenyl)-2-[phenyl-(4-trifluoromethyl-benzoylamino)-methyl]-thiazol-5-yl}-acetic acid]",< 500,> 5000
"COc1ccc(C(c2ccccn2)c2nc(-c3ccc(F)cc3)c(CC(=O)O)s2)cc1 (centres unmarked) [Compound A30, {4-(4-Fluoro-phenyl)-2-[(4-methoxy-phenyl)-pyridin-2-yl-methyl]-thiazol-5-yl}-acetic acid]",< 500,
"O=C(O)Cc1sc(C(c2ccccc2)C2CCCCC2)nc1-c1ccc(Cl)cc1 (centres unmarked) [Compound A32, [4-(4-Chloro-phenyl)-2-(cyclohexyl-phenyl-methyl)-thiazol-5-yl]-acetic acid]",500 to 5000,
"O=C(O)Cc1sc(Cc2ccccc2Oc2ccccc2)nc1-c1ccc(Cl)cc1 [Compound A35, [4-(4-Chloro-phenyl)-2-(2-phenoxy-benzyl)-thiazol-5-yl]-acetic acid]",500 to 5000,
"CC(=O)Nc1cccc(-c2ccccc2Cc2nc(-c3ccc(F)cc3)c(CC(=O)O)s2)c1 [Compound A39, [2-(3′-Acetylamino-biphenyl-2-ylmethyl)-4-(4-fluoro-phenyl)-thiazol-5-yl]-acetic acid]",500 to 5000,
"COc1ccccc1-c1ccccc1Cc1nc(-c2ccc(F)cc2)c(CC(=O)O)s1 [Compound A41, [4-(4-Fluoro-phenyl)-2-(2′-methoxy-biphenyl-2-ylmethyl)-thiazol-5-yl]-acetic acid]",< 500,
"N#Cc1cccc(-c2ccccc2Cc2nc(-c3ccc(F)cc3)c(CC(=O)O)s2)c1 [Compound A43, [2-(3′-Cyano-biphenyl-2-ylmethyl)-4-(4-fluoro-phenyl)-thiazol-5-yl]-acetic acid]",< 500,
"O=C(O)Cc1sc(Cc2ccccc2-c2cccc(OC(F)(F)F)c2)nc1-c1ccc(F)cc1 [Compound A44, [4-(4-Fluoro-phenyl)-2-(3′-trifluoromethoxy-biphenyl-2-ylmethyl)-thiazol-5-yl]-acetic acid]",< 500,

# Next, values leading:
IC50 (human CRTH2 receptor) [nM],IC50 (human CRTH2-Rluc) [nM],SMILES
< 500,< 500,"O=C(O)Cc1sc(C(c2ccccc2)c2ccccc2)nc1-c1ccc(Cl)cc1 [Compound A1, [2-Benzhydryl-4-(4-chloro-phenyl)-thiazol-5-yl]-acetic acid]"
< 500,< 500,"O=C(O)Cc1sc(C(c2ccccc2)c2ccccc2)nc1-c1ccc(F)cc1 [Compound A4, [2-Benzhydryl-4-(4-fluoro-phenyl)-thiazol-5-yl]-acetic acid]"
< 500,500 to 5000,"O=C(O)Cc1sc(C(Cc2ccccc2)c2ccccc2)nc1-c1ccc(Cl)cc1 (centres unmarked) [Compound A5, [4-(4-Chloro-phenyl)-2-(1,2-diphenyl-ethyl)-thiazol-5-yl]-acetic acid]"
< 500,,"CCC(c1ccccc1)c1nc(-c2ccc(Cl)cc2)c(CC(=O)O)s1 (centres unmarked) [Compound A6, [4-(4-Chloro-phenyl)-2-(1-phenyl-propyl)-thiazol-5-yl]-acetic acid]"
< 500,< 500,"O=C(O)Cc1sc(C(c2ccccc2)c2ccc(Cl)cc2)nc1-c1ccc(Cl)cc1 (centres unmarked) [Compound A8, {4-(4-Chloro-phenyl)-2-[(4-chloro-phenyl)-phenyl-methyl]-thiazol-5-yl}-acetic acid]"
< 500,< 500,"O=C(O)Cc1sc(C(c2ccccc2)c2ccc(Cl)cc2)nc1-c1ccc(F)cc1 (centres unmarked) [Compound A10, [2-[(4-Chloro-phenyl)-phenyl-methyl]-4-(4-fluoro-phenyl)-thiazol-5-yl]-acetic acid]"
500 to 5000,< 500,"O=C(O)Cc1sc(C(c2ccccc2)c2ccccc2)nc1-c1ccccc1 [Compound A11, (2-Benzhydryl-4-phenyl-thiazol-5-yl)-acetic acid]"
< 500,500 to 5000,"COc1ccc(-c2nc(C(c3ccccc3)c3ccccc3)sc2CC(=O)O)cc1 [Compound A12, [2-Benzhydryl-4-(4-methoxy-phenyl)-thiazol-5-yl]-acetic acid]"
< 500,< 500,"O=C(O)Cc1sc(C(c2ccccc2)c2ccc(F)cc2)nc1-c1ccc(Cl)cc1 (centres unmarked) [Compound A13, {4-(4-Chloro-phenyl)-2-[(4-fluoro-phenyl)-phenyl-methyl]-thiazol-5-yl}-acetic acid]"
< 500,< 500,"COc1ccc(C(c2ccccc2)c2nc(-c3ccc(F)cc3)c(CC(=O)O)s2)cc1 (centres unmarked) [Compound A15, {4-(4-Fluoro-phenyl)-2-[(4-methoxy-phenyl)-phenyl-methyl]-thiazol-5-yl}-acetic acid]"
< 500,< 500,"COc1ccc(C(c2ccccc2)c2nc(-c3ccc(Cl)cc3)c(CC(=O)O)s2)cc1 (centres unmarked) [Compound A16, {4-(4-Chloro-phenyl)-2-[(4-methoxy-phenyl)-phenyl-methyl]-thiazol-5-yl}-acetic acid]"
< 500,> 5000,"O=C(O)Cc1sc(C(c2ccccc2)c2ccc(F)c(F)c2)nc1-c1ccc(Cl)cc1 (centres unmarked) [Compound A17, {4-(4-Chloro-phenyl)-2-[(3,4-difluoro-phenyl)-phenyl-methyl]-thiazol-5-yl}-acetic acid]"
< 500,< 500,"O=C(O)Cc1sc(C(c2ccccc2)c2ccc(F)c(F)c2)nc1-c1ccc(F)cc1 (centres unmarked) [Compound A18, [2-[(3,4-Difluoro-phenyl)-phenyl-methyl]-4-(4-fluoro-phenyl)-thiazol-5-yl]-acetic acid]"
< 500,,"O=C(O)Cc1sc(C(c2ccccc2)c2ncccc2Cl)nc1-c1ccc(Cl)cc1 (centres unmarked) [Compound A29, {4-(4-Chloro-phenyl)-2-[(3-chloro-pyridin-2-yl)-phenyl-methyl]-thiazol-5-yl}-acetic acid]"
